One test relates to mTOR pathway. In words: Western blot of mTOR pathway markers (S6, S6K, 4E-BP1). It is filed as cell-based. As to conditions: U266, 2.5 hours; buparvaquone 12.5 or 25 μM, Sigma analog 1, 5, or 25 μM; relative to vehicle. Here is the method:
(§1) Western blotting was performed as previously described (Battle T E, Arbiser J, & Frank D A (2005) The natural product honokiol induces caspase dependent apoptosis in B-cell chronic lymphocytic leukemia (B-CLL) cells. Blood 106(2):690-697). Antibodies to phospho-MAPK (9101), total MAPK (9102), phospho-Y705 STAT3 (9131), phospho-S6 (2215), total S6 (2217), phospho-4E-BP1 (9451), total 4E-BP1 (9644), total RSK (9355), phospho-S6K (9234, 85 used at 1:5000), total S6K (2708), phospho-eIF2α (9721, used at 1:1000), total eIF2α (5324), ATF4 (11815, used at 1:1000), PDGFRβ (3169), IGF1Rβ (9750), EGFR (2232), and HER2 (2242) were from Cell Signaling Technology. Phospho-RSK antibody was from R&D (AF889). Antibodies to total STAT3 (sc-482) and gp130 (sc-656, used at 1:1000) were from Santa Cruz Biotechnology. Phospho-S727 STAT3 antibody was described previously (229). REDD1 antibody was from Proteintech (10638-1-AP, used at 1:1000). Antibody recognizing full-length and cleaved ATF6 was from Abcam (ab122897, used at 1:1000). Antibodies to tubulin (T5168) and beta actin (A5316) were from Sigma. All antibodies were used at 1:10000 dilution for western blot unless otherwise noted. For immunoprecipitations, cells were lysed in 500 μl lysis buffer (0.5% NP-40, 150 mM NaCl, 50 mM Tris pH 7.5, with protease and phosphatase inhibitors freshly added at 1:100 [Pierce, PI78443]) on ice for 15 minutes, then centrifuged for 10 minutes at 14,000 RPM and 4° C. The supernatant was transferred to a new tube and incubated with 10 μl JAK2 antibody (Santa Cruz sc-278) or a mix of two TYK2 antibodies, 10 μl of each (Santa Cruz sc-5271 and Cell Signaling Technology 9312). Immunoprecipitation was performed overnight at 4° C. with rotation. The next day, 75 μl of protein A/G beads (Santa Cruz sc-2003) were washed twice in lysis buffer, then incubated with immunoprecipitates overnight as before. The next day, the beads were spun down (1 min. at 7,500 RPM and 4° C.) and washed 3 times with 650 μl lysis buffer for 10 minutes at 4° C. with rotation, then boiled in 50 μl sample buffer+10% β-mercaptoethanol. For Western blot, 20 μl were loaded per lane. For detection of phospho-tyrosine, a mixture of two pan-phospho-tyrosine antibodies (Cell Signaling Technology 9411 and 9416, 1:1000 of each) was used. Antibody to phospho-Y1007/1008 JAK2 was from Cell Signaling 86 Technology (3771, used at 1:1000). Antibody to phospho-Y570 JAK2 was from Millipore (09-241, used at 1:1000). Luminometric Assays Luciferase reporter cell lines were described previously (186). Firefly luciferase values were normalized by concurrent cell viability. Cell viability was measured as ATP-dependent luminescence by Cell Titer Glo (Promega).
K562 cells were treated with atovaquone (20 μM) or rapamycin (10 nM) for 1 hour or 5 hours, then analyzed by Western blot. […] The requirement for prolonged treatment to observe mTOR inhibition raised the possibility that this effect was mediated by an induced factor. To test this hypothesis, cells were pretreated with cycloheximide, a protein synthesis inhibitor. K562 cells were pre-treated with vehicle or cycloheximide (2 μg/ml) for 1 hour, then treated with vehicle or atovaquone (20 μM) for 5 hours. […] Similar results were obtained with actinomycin D, an inhibitor of mRNA synthesis.
To evaluate the role of REDD1, RNA interference was used to knock down its expression in adherent SKBR3 cells, given the relative ease of introducing siRNA into these cells. SKBR3 cells were transfected with control or REDD1 siRNA for 48 hours, then treated with atovaquone (25 μM) for 4 hours.
Next, U266 cells were treated with 12.5 or 25 μM buparvaquone or 1, 5, or 25 μM 2-(4-(trans-decahydronaphth-2-yl)butyl)-3-hydroxy-1,4-naphthoquinone (Sigma analog), or DMSO vehicle control, for 2.5 hours, after which cells were harvested and immunoblots were performed with antibodies for total and phospho STAT3 and total and phospho S6.
(In western blotting, separated proteins are transferred to a membrane and probed.)

The subject of test [1] is STAT3. In words: STAT3-luc reporter cells, IL-6 stimulated luciferase. The class given is cell-based. The following applies: 10, 20, 30, or 40 μM for 1 hour, then IL-6 (10 ng/ml) 5 hours; relative to controls. Here is the method:
as §1
To determine if atovaquone inhibits STAT3, it was tested in a cell-based reporter system of STAT3 transcriptional activity (Nelson E A, et al. (2008) Nifuroxazide inhibits survival of multiple myeloma cells by directly inhibiting STAT3. Blood 112(13):5095-5102). These cells lack basal STAT3 activation; upon IL-6 treatment, STAT3 becomes activated and drives transcription of a STAT3-dependent luciferase reporter gene. […] Activity of firefly luciferase was measured and normalized by cell viability (Cell Titer Glo). […]
STAT3-luc reporter cells were pre-treated with atovaquone, buparvaquone or TDBHN (concentration 10, 20, 30, or 40 μM) for 1 hour, then stimulated with IL-6 (10 ng/ml) for 5 hours. The activity of firefly luciferase was measured and normalized by cell viability (Cell Titer Glo).

The test system of test [2] is STAT3. Kind of test: Western blot of STAT3 phosphorylation in reporter and cancer cell lines. It is filed as cell-based, human. As to conditions: U266, 2.5 hours; for STAT3 phosphorylation (analogs): buparvaquone 12.5 or 25 μM, Sigma analog 1, 5, or 25 μM, relative to vehicle; for STAT3 phosphorylation with UPR activators: tunicamycin 5 μg/ml, thapsigargin 1 μM, brefeldin A 3 μg/ml. Here is the method:
as §1
The mechanism by which atovaquone inhibits STAT3 was investigated. STAT3-luc reporter cells were pre-treated with atovaquone (20 μM) for 1 hr, and then stimulated with IL-6 (10 ng/ml) for 15 minutes, 30 minutes, 1 hours, or 2 hours. Since STAT3 transcriptional activity is critically dependent on tyrosine phosphorylation, Western blotting was performed to see if atovaquone affected STAT3 phosphorylation. […] Next, atovaquone was used to treat U266 (2.5 hours), HEL (6 hours), or INA-6 cells (4 hours). […] In U266 and INA-6 cells, the source of STAT3 activation is JAK-dependent IL-6 signaling, while in HEL cells, STAT3 is activated by mutant JAK2-V617F. Given that atovaquone inhibits constitutive STAT3 activation in cancer cells, it was asked whether atovaquone inhibits expression of endogenous STAT3 target genes in this context.
Since atovaquone reduced gp130 expression at the cell surface, it was asked whether this effect was accompanied by reduced total gp130 in the cell. To address this question, a time course of atovaquone treatment was performed and total cellular gp130 was measured by Western blotting in U266 cells treated with atovaquone at 20 μM. […]

The subject of a further test is gp130. In words: Flow cytometry of cell-surface gp130. It is filed as cell-based. As to conditions: U266, 2.5 hours; atovaquone 20 μM, JAK inhibitor 1 1 μM, brefeldin A 3 μg/ml. The procedure: (§2) Annexin V/PI staining was performed using Annexin V:FITC Apoptosis Detection Kit I (BD Biosciences). Staining for cell cycle analysis was performed as previously described (267). Staining for cell-surface receptors was performed in 50 μl PBS+2% FBS with 2 μl antibody to IL6R (BioLegend #352803) or 5 μl antibody to gp130 (BD Biosciences #555757) for 20 minutes on ice in the dark. Cells were washed twice, then resuspended in 300 μl of the same buffer. Samples were analyzed on a BD FACSCanto II machine. Transfection and siRNA Cells were reverse-transfected using Lipofectamine RNAiMAX (Invitrogen); the culture medium was changed 24 hours later. Control siRNA (D-001210-02) and REDD1 siRNA (M-010855-01) were from Thermo Scientific Dharmacon.
Since atovaquone reduced gp130 expression at the cell surface, it was asked whether this effect was accompanied by reduced total gp130 in the cell. To address this question, a time course of atovaquone treatment was performed and total cellular gp130 was measured by Western blotting in U266 cells treated with atovaquone at 20 μM. […] Thus, it was surmised that atovaquone also rapidly downregulates cell-surface gp130, paralleling STAT3 inhibition and preceding the decrease in total gp130. […] Loss of cell-surface gp130 may be due to decreased entry into the plasma membrane or increased internalization. In either case, the decrease in total gp130 observed at longer time points is likely due to degradation of relatively unstable intracellular gp130.
(In flow cytometry, cells or beads pass a laser one at a time.)

For the next test, the system named is IL-6 receptor. In words: Flow cytometry of cell-surface IL-6 receptor. It is filed as cell-based, human. The following applies: U266, 2.5 hours; atovaquone 20 μM, brefeldin A 3 μg/ml. Here is the method: as §2

Consider `O=C1C(O)=C(CCCCC2CC[C@H]3CCCC[C@@H]3C2)C(=O)c2ccccc21` (relative stereo) [TDBHN, 2-(4-(trans-decahydronaphth-2-yl)butyl)-3-hydroxy-1,4-naphthoquinone], for which, in the test with mTOR pathway, the “S6 phosphorylation (analogs)” value was “inhibited STAT3 and S6 phosphorylation at all concentrations tested”. In addition, in the test on STAT3 [1], the “STAT-3 reporter gene expression” value is listed as “inhibited STAT-3 reporter gene expression”. The “STAT3 phosphorylation (analogs)” value with STAT3 [2] was “inhibited STAT3 and S6 phosphorylation at all concentrations tested”.

As to `CC(C)(C)c1nc2c3cc[nH]c(=O)c3c3cc(F)ccc3c2[nH]1` [JAK inhibitor 1], the “cell-surface expression of gp130” value in the test with gp130 is “did not affect gp130 expression”.

On to `C/C=C(/C)C(=O)O[C@H]1C(C)=C2[C@H]([C@@H]1OC(=O)CCCCCCC)[C@@](C)(OC(C)=O)C[C@H](OC(=O)CCC)[C@@]1(O)[C@H]2OC(=O)[C@@]1(C)O` [Thapsigargin], for which the “STAT3 phosphorylation with UPR activators” value in the test with STAT3 [2] is on record as “only brefeldin A decreased STAT3 phosphorylation”.

In the case of `C[C@H]1CCC/C=C/[C@@H]2C[C@H](O)C[C@H]2[C@H](O)/C=C/C(=O)O1` [brefeldin A], in the test on IL-6 receptor, the “cell-surface expression of IL-6 receptor” value was “reduced the cell surface expression of both gp130 and IL-6 receptor”. In addition, in the test on gp130, the “cell-surface expression of gp130” value was “reduced the cell surface expression of both gp130 and IL-6 receptor”. Also, in the test with STAT3 [2], the “STAT3 phosphorylation with UPR activators” value is reported as “decreased STAT3 phosphorylation”.

Take `CC(C)(C)C1CCC(CC2=C(O)C(=O)c3ccccc3C2=O)CC1` (stereo not drawn) [buparvaquone, 2((4-tert-butylcyclohexyl)methyl)-3-hydroxy-1,4-naphthoquinone]: the “S6 phosphorylation (analogs)” value in the test on mTOR pathway is “inhibited STAT3 and S6 phosphorylation at all concentrations tested”. Besides, the “STAT-3 reporter gene expression” value with STAT3 [1] is given as “inhibited STAT-3 reporter gene expression”. In the test with STAT3 [2], the “STAT3 phosphorylation (analogs)” value was “inhibited STAT3 and S6 phosphorylation at all concentrations tested”.

For the compound Tunicamycin, the “STAT3 phosphorylation with UPR activators” value in the test on STAT3 [2] is reported as “only brefeldin A decreased STAT3 phosphorylation”.

The values above are taken from US10130590B2, “Methods of treating cancer with atovaquone-related compounds” (DANA-FARBER CANCER INSTITUTE, INC., priority 2013, dated 2018).
